Active and inactive are the calls of the source. Positions of bridges follow the written chain, without caps; N, C: chain ends. Non-standard residues stand in square brackets, D forms with d. Residues, ends and D or L forms follow the SMILES beside them. *: point of attachment. X1 = CCC(C)C(N)C1=NC(C(=O)*)CS1; dOrn = NCCC[C@@H](N)C(=O)O
Experiments:
[1] = molecular target: T1, Hexokinase HKDC1 (Homo sapiens, UniProt Q2TB90); assay: inhibition of HKDC1 glucose phosphorylation – biochemical, W721R variant, dose response (AID 504729); format: functional
T1 sequence (Q2TB90 whole entry): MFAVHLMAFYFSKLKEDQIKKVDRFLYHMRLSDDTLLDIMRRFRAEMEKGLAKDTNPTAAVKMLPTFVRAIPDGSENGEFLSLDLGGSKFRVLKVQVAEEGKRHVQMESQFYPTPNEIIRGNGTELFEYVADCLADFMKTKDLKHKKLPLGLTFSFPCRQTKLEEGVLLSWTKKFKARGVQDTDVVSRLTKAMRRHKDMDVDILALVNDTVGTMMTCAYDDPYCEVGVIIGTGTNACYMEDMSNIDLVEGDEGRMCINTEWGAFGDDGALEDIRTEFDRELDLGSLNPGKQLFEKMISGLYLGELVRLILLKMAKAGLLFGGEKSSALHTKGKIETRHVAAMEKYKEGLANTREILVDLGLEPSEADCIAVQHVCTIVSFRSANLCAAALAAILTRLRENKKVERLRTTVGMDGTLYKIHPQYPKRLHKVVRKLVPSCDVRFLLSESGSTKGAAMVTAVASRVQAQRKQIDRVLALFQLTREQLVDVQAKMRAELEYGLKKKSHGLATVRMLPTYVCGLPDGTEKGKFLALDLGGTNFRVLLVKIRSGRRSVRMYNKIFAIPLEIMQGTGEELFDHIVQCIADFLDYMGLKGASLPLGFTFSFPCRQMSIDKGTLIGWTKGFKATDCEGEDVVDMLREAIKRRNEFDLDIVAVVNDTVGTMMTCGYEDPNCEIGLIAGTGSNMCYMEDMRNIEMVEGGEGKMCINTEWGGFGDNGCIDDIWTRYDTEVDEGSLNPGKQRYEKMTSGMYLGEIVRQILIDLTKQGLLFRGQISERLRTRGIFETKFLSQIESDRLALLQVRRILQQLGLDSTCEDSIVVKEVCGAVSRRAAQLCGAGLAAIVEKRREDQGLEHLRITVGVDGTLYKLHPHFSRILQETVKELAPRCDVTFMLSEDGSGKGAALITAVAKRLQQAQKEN

[2] = tested on: Escherichia coli; assay: microbe, parasite or virus in culture
[3] = tested on: Escherichia coli; assay: microbe, parasite or virus in culture; remark: listed apart in the source
[4] = tested on: HEK293; assay: cells; settings: Homo sapiens
[5] = tested on: HEK293; assay: cells; settings: Homo sapiens; remark: listed apart in the source
[6] = Luminescence Cell-Based Dose Retest to Confirm Inhibitors of Cancer Stem Cells. [Related pubchem assays (depositor defined):AID2717, AID2721]; format: functional; settings: Homo sapiens
[7] = molecular target: T2, Microphthalmia-associated transcription factor (Homo sapiens, UniProt O75030); assay: reducers of TRPM1 reporter luminescence, concentration series – cell-based, SK-MEL-5, cherry-picked, set 3, MITF inhibitor project, dose response (AID 493073); format: functional;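 further: SK-MEL-5 melanoma cells with luciferase driven by the MITF target TRPM1 promoter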
T2 sequence (O75030 whole entry): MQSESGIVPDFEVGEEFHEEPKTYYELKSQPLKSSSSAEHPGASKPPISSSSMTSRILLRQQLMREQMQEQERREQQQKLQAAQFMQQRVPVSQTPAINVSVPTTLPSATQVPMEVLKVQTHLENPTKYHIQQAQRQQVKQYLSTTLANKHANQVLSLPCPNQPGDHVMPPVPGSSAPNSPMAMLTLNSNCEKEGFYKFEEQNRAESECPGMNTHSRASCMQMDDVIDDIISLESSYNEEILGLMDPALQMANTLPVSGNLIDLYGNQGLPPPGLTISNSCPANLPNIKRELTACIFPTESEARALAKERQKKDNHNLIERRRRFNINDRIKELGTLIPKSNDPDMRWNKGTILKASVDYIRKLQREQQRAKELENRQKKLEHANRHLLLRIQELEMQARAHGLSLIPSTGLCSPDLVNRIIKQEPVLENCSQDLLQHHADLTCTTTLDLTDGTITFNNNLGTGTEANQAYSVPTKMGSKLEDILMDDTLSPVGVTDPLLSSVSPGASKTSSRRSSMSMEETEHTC

[8] = molecular target: T3, Replicative DNA helicase DnaB (Mycobacterium tuberculosis, UniProt P9WMR3); assay: DnaB intein splicing inhibitors, dose response, biochemical, cell-free fluorescence (AID 449749); format: functional
T3 sequence (P9WMR3 whole entry): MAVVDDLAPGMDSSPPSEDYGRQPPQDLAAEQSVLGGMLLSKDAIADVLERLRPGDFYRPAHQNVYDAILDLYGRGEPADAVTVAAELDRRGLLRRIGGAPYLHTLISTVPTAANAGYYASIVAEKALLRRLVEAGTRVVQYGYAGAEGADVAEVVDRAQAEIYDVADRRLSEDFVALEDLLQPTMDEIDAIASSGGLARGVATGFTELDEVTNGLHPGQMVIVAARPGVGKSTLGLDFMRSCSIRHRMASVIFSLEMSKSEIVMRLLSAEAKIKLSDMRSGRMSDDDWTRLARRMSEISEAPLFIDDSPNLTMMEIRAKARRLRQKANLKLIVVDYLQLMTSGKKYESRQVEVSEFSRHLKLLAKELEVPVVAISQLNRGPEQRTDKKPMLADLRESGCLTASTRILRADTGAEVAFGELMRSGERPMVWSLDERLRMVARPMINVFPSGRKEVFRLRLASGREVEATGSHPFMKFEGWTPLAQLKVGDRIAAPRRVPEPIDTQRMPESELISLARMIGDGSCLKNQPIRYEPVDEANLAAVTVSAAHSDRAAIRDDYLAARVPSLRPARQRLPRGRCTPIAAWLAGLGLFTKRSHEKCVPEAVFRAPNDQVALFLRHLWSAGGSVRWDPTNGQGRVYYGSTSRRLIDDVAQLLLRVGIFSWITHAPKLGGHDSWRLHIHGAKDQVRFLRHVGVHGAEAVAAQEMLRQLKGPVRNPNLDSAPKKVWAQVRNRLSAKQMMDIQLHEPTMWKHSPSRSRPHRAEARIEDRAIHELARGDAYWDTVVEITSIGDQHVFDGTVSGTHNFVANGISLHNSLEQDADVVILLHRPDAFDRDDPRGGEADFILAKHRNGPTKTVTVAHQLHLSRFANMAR

[9] = molecular target: T4, Apoptotic protease-activating factor 1 (Homo sapiens, UniProt O14727); format: functional
T4 sequence (O14727 whole entry): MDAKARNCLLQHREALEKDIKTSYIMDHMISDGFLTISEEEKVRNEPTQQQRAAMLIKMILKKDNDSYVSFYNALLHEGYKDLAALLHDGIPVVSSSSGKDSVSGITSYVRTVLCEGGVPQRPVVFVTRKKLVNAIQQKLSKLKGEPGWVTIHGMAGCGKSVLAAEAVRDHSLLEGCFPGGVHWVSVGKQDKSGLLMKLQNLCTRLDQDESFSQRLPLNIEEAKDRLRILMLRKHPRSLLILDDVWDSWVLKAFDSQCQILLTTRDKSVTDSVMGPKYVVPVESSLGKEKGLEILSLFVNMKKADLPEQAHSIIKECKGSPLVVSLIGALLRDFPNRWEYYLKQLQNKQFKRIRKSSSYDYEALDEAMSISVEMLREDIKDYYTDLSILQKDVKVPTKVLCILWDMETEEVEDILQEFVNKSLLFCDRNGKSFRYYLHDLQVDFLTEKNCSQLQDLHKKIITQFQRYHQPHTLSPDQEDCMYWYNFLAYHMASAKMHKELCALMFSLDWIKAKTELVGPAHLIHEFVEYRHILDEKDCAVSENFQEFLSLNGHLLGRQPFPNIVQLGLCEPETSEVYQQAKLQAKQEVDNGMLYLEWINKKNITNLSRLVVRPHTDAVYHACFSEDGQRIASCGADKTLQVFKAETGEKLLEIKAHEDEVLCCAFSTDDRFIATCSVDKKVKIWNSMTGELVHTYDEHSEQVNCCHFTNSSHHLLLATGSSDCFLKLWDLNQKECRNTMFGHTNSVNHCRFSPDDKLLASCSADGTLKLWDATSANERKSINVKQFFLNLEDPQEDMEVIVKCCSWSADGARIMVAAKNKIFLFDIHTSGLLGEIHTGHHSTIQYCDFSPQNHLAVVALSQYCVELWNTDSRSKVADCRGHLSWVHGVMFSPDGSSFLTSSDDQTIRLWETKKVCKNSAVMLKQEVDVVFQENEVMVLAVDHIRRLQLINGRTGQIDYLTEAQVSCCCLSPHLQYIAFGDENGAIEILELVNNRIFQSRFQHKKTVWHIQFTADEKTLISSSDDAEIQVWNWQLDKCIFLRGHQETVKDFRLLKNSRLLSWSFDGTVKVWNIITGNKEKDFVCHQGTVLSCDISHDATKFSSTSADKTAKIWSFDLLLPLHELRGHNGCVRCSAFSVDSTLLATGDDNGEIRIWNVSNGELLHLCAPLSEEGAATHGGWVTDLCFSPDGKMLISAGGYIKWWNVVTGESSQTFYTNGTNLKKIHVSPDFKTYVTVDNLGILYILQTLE

[10] = molecular target: T5, Protein RecA (Mycobacterium tuberculosis, UniProt P9WHJ3); assay: Fluorescence Cell-Free Homogeneous Dose Retest to Identify Inhibitors of RecA-Intein Splicing Activity. [Related pubchem assays (depositor defined):AID2097, AID2223, AID489010, AID492950]; format: functional
T5 sequence (P9WHJ3 whole entry): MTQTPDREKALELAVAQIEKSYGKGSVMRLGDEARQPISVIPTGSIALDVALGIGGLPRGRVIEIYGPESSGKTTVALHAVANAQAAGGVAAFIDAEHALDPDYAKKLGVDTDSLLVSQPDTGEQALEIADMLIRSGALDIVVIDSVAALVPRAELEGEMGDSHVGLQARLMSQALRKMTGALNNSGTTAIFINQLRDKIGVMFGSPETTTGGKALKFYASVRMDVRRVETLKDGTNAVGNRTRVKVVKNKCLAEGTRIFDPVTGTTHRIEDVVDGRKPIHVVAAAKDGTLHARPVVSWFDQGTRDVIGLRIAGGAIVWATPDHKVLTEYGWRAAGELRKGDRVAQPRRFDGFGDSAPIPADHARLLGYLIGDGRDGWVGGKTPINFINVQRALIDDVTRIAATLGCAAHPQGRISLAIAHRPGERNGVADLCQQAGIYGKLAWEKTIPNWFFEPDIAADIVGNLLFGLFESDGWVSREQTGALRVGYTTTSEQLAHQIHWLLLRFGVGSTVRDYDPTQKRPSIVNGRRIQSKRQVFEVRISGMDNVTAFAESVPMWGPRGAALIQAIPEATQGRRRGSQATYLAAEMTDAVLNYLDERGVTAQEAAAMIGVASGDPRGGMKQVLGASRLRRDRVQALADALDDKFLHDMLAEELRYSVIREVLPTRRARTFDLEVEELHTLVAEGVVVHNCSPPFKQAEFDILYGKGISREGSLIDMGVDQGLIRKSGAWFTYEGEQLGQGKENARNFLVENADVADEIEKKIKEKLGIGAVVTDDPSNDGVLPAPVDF

[11] = tested on: A-375; assay: MITF: Counter assay: A375 proliferation Measured in Cell-Based System Using Plate Reader - 2084-03_Inhibitor_Dose_DryPowder_Activity. [Related pubchem assays (depositor defined):AID488944]; format: functional; settings: Homo sapiens
[12] = tested on: INS1; assay: INS-1E survival protection against cytokine death – cell-based, luminescence, retest, dose response (AID 449756); format: functional; settings: Rattus norvegicus;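 further: cell death triggered by IL-1 beta plus TNF-alpha plus IFN-gamma mixture; protective hits raise ATP signal compared with cytokine alone wells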

## CCC(C)C(N)C1=NC(C(=O)N[C@@H](CC(C)C)C(=O)N[C@H](CCC(=O)[O-])C(=O)N[C@H](C(=O)N[C@H]2CCCCNC(=O)[C@H](CC(N)=O)NC(=O)[C@@H](CC(=O)[O-])NC(=O)[C@H](Cc3c[nH]cn3)NC(=O)[C@@H](Cc3ccccc3)NC(=O)[C@H]([C@@H](C)CC)NC(=O)[C@@H](CCCN)NC2=O)[C@@H](C)CC)CS1.[Zn+2] (some centres not stated) (X1-L[dE]IK[dOrn]I[dF]H[dD]N; lactam 4-C)
[1]
  IC50: 2.69 µM (active)
[2]
  AC50: 38 µM (active)
[3]
  AC50: 184 µM (active)

## COc1ccc(Cn2nnc3c(O)nc(C(=O)NCCc4ccc(F)cc4)nc32)cc1OC
[4]
  EC50: > 59.7 µM (inactive)
[5]
  EC50: > 59.7 µM (inactive)

## CCOC(=O)c1c(C)oc2c1C(=O)c1ccccc1C2=O
[6]
  AC50: 4.44 µM (active)
[7]
  AC50: 3.18 µM (active)
[8]
  AC50: 6.31 µM (active)
[9]
  IC50: 16.1 µM (active)
[10]
  EC50: 13.3 µM (active)
[11]
  AC50: 41.9 µM (active)
[12]
  AC50: 3.7 µM (active)
